Data from EP4667482A1, “SALT OF DIPEPTIDE COMPOUND, PREPARATION METHOD THEREFOR, AND USE THEREOF” (Zhejiang Huahai Pharmaceutical Co., Ltd., priority 2023, dated 2024).

Columns and labels:
[1] = test system: Rats model of deep vein thrombosis; assay: Rat model of deep vein thrombosis (thrombus weight); type: in vivo, SD rats
From the text: Experimental animals: SD rats (body weight 220 to 250 g, sex: male)
The thrombus was removed and weighed.

[2] = Blood drug level in the rat deep vein thrombosis model; conditions: intravenous infusion of 0.1 mg/kg/h compound V
Procedure: Preparation of solution: An appropriate amount of Form I was weighed, dissolved in a vehicle (0.5% (W/V) Natrosol™ 250 HX solution containing 0.1% (W/V) L(+)-tartaric acid) to formulate into the required concentration and then stirred uniformly, so that the drug was administered according to the predetermined dose.
Procedure: Rats were acclimatized for 3 days and randomly divided into three groups: model group, positive control group/subject group and bridging group, with 8 to 10 rats in each group. […] Rats in each group were anesthetized with urethane (20%, 5 mL/kg) via intraperitoneal injection. The abdominal cavity was exposed, the vena cava was bluntly separated, and two surgical sutures of 8 to 10 cm in length were placed under the blood vessels, both 1 cm apart. When the modeling time of each group was reached, rabbit thromboplastin (0.02 mg/kg) was injected into the left femoral vein, and the two sutures were knotted 10 s later, and the knotted portion of the suture was cut with ophthalmic scissors after 1 h. The thrombus was removed and weighed.

Solubility determination = type: physicochemical; conditions: water, result in words
[3] = 0.1 mg/kg/h, intravenous infusion

| Blood drug level [2] | Structure (SMILES) | Thrombosis inhibition rate (%) [1, 3] | Thrombus weight [1, 3] | antithrombotic effect compared with oral administration of 5 mg/kg Form I ([1]; intravenous infusion of 0.1 mg/kg/h in rats) | aqueous solubility (Solubility determination) |
| --- | --- | --- | --- | --- | --- |
| 174.2 ± 51.8 ng/mL | CC(C)C[C@@H](NCC(=O)O)C(=O)N1CCC[C@H]1C(=O)NCc1ccc(C(=N)N)cc1 [Compound V] | 48.2% | 36.8 ± 6.6 mg | comparable | – |
| – | CCCCCCOC(=O)NC(=N)c1ccc(CNC(=O)[C@@H]2CCCN2C(=O)[C@@H](CC(C)C)NCC(=O)OCC)cc1 | – | – | – | insoluble in water |
